Measurements published in EP0755932A1, “(Thiophen-2-yl)piperidin or tetrahydropyridin-azabicyclocarboxamides” (AMERICAN HOME PRODUCTS CORPORATION, priority 1995, dated 1997).

Molecular target: T1, 5-HT1A serotonin receptor (Rattus norvegicus, UniProt P19327)
T1 construct: from tissue; host or cells: rat brain membranes (inferred from the cited Hall et al. procedure)
T1 sequence (P19327 1-422): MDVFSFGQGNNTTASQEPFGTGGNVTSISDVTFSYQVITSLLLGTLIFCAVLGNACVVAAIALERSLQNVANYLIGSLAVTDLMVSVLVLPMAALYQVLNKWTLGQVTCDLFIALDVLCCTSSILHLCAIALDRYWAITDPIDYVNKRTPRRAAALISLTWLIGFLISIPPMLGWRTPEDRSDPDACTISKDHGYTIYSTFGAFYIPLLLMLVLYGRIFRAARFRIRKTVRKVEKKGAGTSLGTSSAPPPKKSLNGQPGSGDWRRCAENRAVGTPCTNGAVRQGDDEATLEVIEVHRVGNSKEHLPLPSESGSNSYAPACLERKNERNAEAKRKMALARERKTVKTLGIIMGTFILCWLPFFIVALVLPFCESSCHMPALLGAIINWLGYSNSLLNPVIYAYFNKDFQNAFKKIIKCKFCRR
Test: Displacement of [3H] 8-OHDPAT from the 5-HT1A serotonin receptor (procedure of Hall et al.)
Assay type: binding
Source text: 8-OHDPAT (dipropylaminotetralin) from the 5-HT1A serotonin receptor following the procedure of Hall et al., J. Neurochem. 44, 1685 (1985).

| Compound | IC50 |
| --- | --- |
| COc1ccsc1C1(O)CCN(CC[C@@H](C(=O)N2C3CCCC2CC3)c2ccccc2)CC1 [Example 1, (R)-1-(8-Aza-bicyclo[3.2.1.]oct-8-yl)-4-[4-hvdroxy-4-(3-methoxythiophen-2-yl)-piperidin-1-yl]-2-phenylbutan-1-one] | 942 nM |
| COc1ccsc1C1=CCN(CC[C@@H](C(=O)N2C3CCCC2CC3)c2ccccc2)CC1 [Example 2, (R)-1-(8-Aza-bicyclo[3.2.1.]oct-8-yl)4-[4-(3-methoxythiophen-2-yl)-1,2,3,6-tetrahydropyridin-1-yl]-2-phenylbutan-1-one] | 0.9 nM |
